Here are results for 7 compounds from publication PMC8004798, “Identification of Bioactive Compounds from Marine Natural Products and Exploration of Structure-Activity Relationships (SAR)” (Antibiotics, 2021).

Values after ≈ are worked out from the molar mass of the structure shown. Read-outs that look alike come from different tables or passages of the source.

Series [1] concerns methicillin-resistant Staphylococcus aureus (MRSA). Kind of series: Resazurin bacterial inhibition assay (MIC), MRSA. In kind it is cell-based. The note with it: Staphylococcus aureus, MRSA, 18 h, read-out: Minimum Inhibitory Concentration MRSA. In general terms: Resazurin is reduced to fluorescent resorufin, in cell work by metabolically active cells.
For series [2], the system named is E. coli EC958. Put plainly: Resazurin bacterial inhibition assay (MIC), E. coli. The note with it: Escherichia coli, read-out: Minimum Inhibitory Concentration E. coli. It counts as cell-based.
Series [3] relates to P. aeruginosa PAO1. Put plainly: Resazurin bacterial inhibition assay (MIC), P. aeruginosa. In kind it is cell-based. As to conditions: Pseudomonas aeruginosa, read-out: Minimum Inhibitory Concentration P. aeruginosa.
Series [4] has as its system M. tuberculosis H37Rv. Put plainly: Resazurin bacterial inhibition assay (MIC), M. tuberculosis. In kind it is cell-based. The note with it: Mycobacterium tuberculosis, 168 h, commercial compounds, 7 days, read-out: Minimum Inhibitory Concentration M. tuberculosis H37Rv.
Series [5] concerns human hepatocellular carcinoma cells (Hep-G2). Kind of series: Resazurin cytotoxicity assay, HepG2. The source says:
(§1) To identify marine samples with activity against MRSA, 1434 compounds from the AIMS Bioresources Library (provided by the Queensland Compound Library, Brisbane, Australia, now called Compounds Australia) were screened in a resazurin cell viability assay.
(§2) Toxicity of AIMS Extract Library. Human alveolar epithelial cells (A549), Madin-Darby canine kidney epithelial cells (MDCK), human leukaemia cells (THP-1), human hepatocellular carcinoma cells (Hep-G2) and human embryonic kidney cells 293 (HEK293) were grown and differentiated in complete RPMI (Roswell Park Memorial Institute Medium) and DMEM (Dulbecco’s Modified Eagle’s medium) tissue culture media (RPMIc and DMEMc, from the Thermo Fisher Scientific, Waltham, MA, USA) by adding 10% FBS, 200 µM L-glutamine and 1 mM HEPES buffer solution. To determine toxicity of the AIMS extract library, 2 × 10^5 of each cell type were added to a 96-well plate and left for 48 h in a humidified 5% CO2 incubator at 37 °C to adhere. Extract samples at a final concentration of 0.5 mg mL^−1 were added to the wells, then the plates incubated for 4 more days in a humidified 5% CO2 incubator at 37 °C. Then, resazurin (10 μL of 0.05% w/v) was added and after 4 h, fluorescence measured as described previously. The cell viability was calculated as percentage fluorescence relative to untreated cells.

The subject of series [6] is human embryonic kidney cells 293 (HEK293). Put plainly: Resazurin cytotoxicity assay, HEK 293.
Description: as §1, §2

In series [7] the test system is Human alveolar epithelial cells (A549). Kind of series: Resazurin cytotoxicity assay, A549.
Description: as §1, §2

Series [8] concerns human leukaemia cells (THP-1). Kind of series: Resazurin cytotoxicity assay, THP-1.
Description: as §1
as §2, with “Extract samples at a final concentration of 0.5 mg mL^−1 were added to the wells, then the plates incubated for 4 more days in a humidified 5% CO2 incubator at 37 °C.” left out

In series [9] the test system is different test pathogens (MRSA, E. coli, P. aeruginosa, M. tuberculosis). Put plainly: Bacterial inhibition assay (MIC), summary over test pathogens. In kind it is cell-based. The note with it: read-out: MICs against MRSA, E. coli and P. aeruginosa. On the procedure: For screening of the AIMS library, each test sample (10 µL) was dispensed into a separate well of a 96 well microtiter plates (final sample concentration 0.5 mg mL^−1) using sterile dH2O. […] Bacterial suspension (90 µL, OD600nm 0.001) was added to each well and plates were incubated at 37 °C for either 18 h (MRSA, P. aeruginosa PAO1, E. coli EC958) or 7 days for M. tuberculosis H37Rv as described previously. Resazurin (10 μL; 0.05% w/v) was added and plates were incubated for 3 h or 24 h (M. tuberculosis) at 37 °C. The inhibitory activity was calculated by visual determination of colour change within wells or detection of fluorescence at 590 nm using a FLUOstar Omega microplate reader (BMG Labtech, Ortenberg, Germany). Percentage survival was calculated in comparison to the average of untreated control wells after normalising for background readings.

The mark [10] stands for this setting: commercial compounds, resazurin.
The mark [11] stands for this setting: EC958, commercial compounds, 18 h, resazurin.
Where [12] appears, read: PAO1, commercial compounds, 18 h, resazurin.
Setting [13] is: commercial compounds, unit from Table 8 head.

`CCCCCCN` [Hexylamine]: the MIC in series [1] (setting [10]) was above 100 µM; in series [2] (setting [11]), above 100 µM; in [3] (setting [12]) it was 50 µM (≈ 5.06 µg/mL); in series [4], above 100 µM; in series [9] it was 50 to 100 µM (≈ 5.06 to 10.1 µg/mL). Moreover, the “Minimum Toxicity Concentration HepG2” value in series [5] (setting [13]) is given as above 100 µM. Also, the “Minimum Toxicity Concentration HEK 293” value in series [6] (setting [13]) is recorded as above 100 µM. Moreover, the “Minimum Toxicity Concentration A549” value in [7] (setting [13]) is above 100 µM. The “Minimum Toxicity Concentration THP-1” value in series [8] (setting [13]) is on record as above 100 µM.
For the compound `Cc1ccc2ccc3ccc(C)nc3c2n1` [Neocuproine hemihydrate], the MIC amounted to 0.09 µM in series [1] (setting [10]), 0.3 µM in series [2] (setting [11]), 0.04 µM in series [3] (setting [12]) and 0.1 µM in series [4]. Also, the “Minimum Toxicity Concentration HepG2” value in series [5] (setting [13]) is given as 0.1 µM. Further, in series [6] (setting [13]), the “Minimum Toxicity Concentration HEK 293” value amounted to 0.1 µM. Also, the “Minimum Toxicity Concentration A549” value in series [7] (setting [13]) is reported as 6.2 µM. Besides, the “Minimum Toxicity Concentration THP-1” value in series [8] (setting [13]) stood at 12 µM.
As for `c1ccc(CN(Cc2ccccc2)Cc2ccccc2)cc1` [Tribenzylamine], the MIC is above 100 µM in series [1] (setting [10]), above 100 µM in [2] (setting [11]), 6.5 µM (≈ 1.87 µg/mL) in [3] (setting [12]) and above 100 µM in series [4]. Also, the “Minimum Toxicity Concentration HepG2” value in [5] (setting [13]) is listed as above 100 µM. For the same compound, the “Minimum Toxicity Concentration HEK 293” value in series [6] (setting [13]) is above 100 µM. The “Minimum Toxicity Concentration A549” value in series [7] (setting [13]) is above 100 µM. Further, the “Minimum Toxicity Concentration THP-1” value in series [8] (setting [13]) is above 100 µM.
`CCCCN(CCCC)CCCC` [Tributylamine]: the MIC in series [1] was above 100 µM; in series [2] (EC958, 18 h) it was above 100 µM; in series [3] (PAO1, 18 h), 50 µM (≈ 9.27 µg/mL); in series [4], above 100 µM. Also, the “Minimum Toxicity Concentration HepG2” value in [5] (setting [13]) is reported as above 100 µM. In addition, in [6] (setting [13]), the “Minimum Toxicity Concentration HEK 293” value is given as above 100 µM. Also, the “Minimum Toxicity Concentration A549” value in series [7] (setting [13]) is on record as above 100 µM. The “Minimum Toxicity Concentration THP-1” value in [8] (setting [13]) was above 100 µM.
Regarding `CCN(CC)CC` [Triethylamine], the MIC in [1] (setting [10]), in [2] (setting [11]), in [3] (setting [12]) and in series [4] was above 100 µM in each case. Moreover, the “Minimum Toxicity Concentration HepG2” value in series [5] (human, 4 days) was above 100 µM. In series [6] (human, 4 days), the “Minimum Toxicity Concentration HEK 293” value is above 100 µM. The “Minimum Toxicity Concentration A549” value in series [7] (human, 4 days) is above 100 µM. Also, the “Minimum Toxicity Concentration THP-1” value in [8] (human, 4 days) is given as above 100 µM.
For the compound `CCCCCCN(CCCCCC)CCCCCC` [Trihexylamine], the MIC was 3 µM (≈ 0.809 µg/mL) in series [1] (setting [10]); 3 µM (≈ 0.809 µg/mL) in series [2] (setting [11]); 6.5 µM (≈ 1.75 µg/mL) in [3] (setting [12]); above 100 µM in [4]; 3 to 6.5 µM (≈ 0.809 to 1.75 µg/mL) in series [9]. Also, in [5] (setting [13]), the “Minimum Toxicity Concentration HepG2” value is above 100 µM. The “Minimum Toxicity Concentration HEK 293” value in [6] (setting [13]) is listed as 50 µM. Also, the “Minimum Toxicity Concentration A549” value in series [7] (setting [13]) is above 100 µM. In series [8] (setting [13]), the “Minimum Toxicity Concentration THP-1” value is above 100 µM.
As for `CCCCCCCCN(CCCCCCCC)CCCCCCCC` [Trioctylamine], the MIC came out at 12.5 µM (≈ 4.42 µg/mL) in series [1] (setting [10]), 25 µM (≈ 8.84 µg/mL) in series [2] (setting [11]), 25 µM (≈ 8.84 µg/mL) in series [3] (setting [12]) and 0.02 µM (≈ 0.00707 µg/mL) in [4]. Moreover, the “Minimum Toxicity Concentration HepG2” value in [5] (setting [13]) is on record as above 100 µM. Further, the “Minimum Toxicity Concentration HEK 293” value in series [6] (setting [13]) came out at 6 µM. Moreover, the “Minimum Toxicity Concentration A549” value in [7] (setting [13]) came to 50 µM. Moreover, the “Minimum Toxicity Concentration THP-1” value in series [8] (setting [13]) was found to be 3.1 µM.
